The values that follow are results of earlier work, collected in US8815815B2, “Methods for producing phytoextracts from vegetation waters and olive oil pomaces and compositions obtained thereby” (Phenofarm S.r.l., priority 2011, dated 2014).

≈ marks a conversion by molar mass, not a printed value.

Data set [1] deals with P-388 murine leukaemia cells.
The subject of data set [2] is neutrophils. Particulars: in vitro.
In data set [3] the test system is PC12 neuronal cell culture. The conditions noted are these: 1-methyl-4-phenylpyridine (MPP+) ion.

Take `C[C@@H]1O[C@@H](O[C@@H]2[C@@H](O)[C@H](OCCc3ccc(O)c(O)c3)O[C@H](COC(=O)/C=C/c3ccc(O)c(O)c3)[C@H]2O)[C@H](O)[C@H](O)[C@H]1O` [isoacteoside]: the ED50 cytotoxic action in data set [1] is 10 µg/mL (≈ 16 µM).

For the molecule `C[C@@H]1O[C@@H](O[C@@H]2[C@@H](O)[C@H](OCCc3ccc(O)c(O)c3)O[C@H](CO)[C@H]2OC(=O)/C=C/c2ccc(O)c(O)c2)[C@H](O)[C@H](O)[C@H]1O` [verbascoside], the ED50 cytotoxic action in data set [1] is 26 µg/mL (≈ 41.6 µM). Moreover, the “chemotactic activity of neutrophils” value in data set [2] is “increasing the chemotactic activity of neutrophils”. In addition, the “protection activity against neurotoxicity induced by MPP+” value in data set [3] is “protection activity against neurotoxicity”.
